Experimental data as given in patent US10984891B2, “Methods for global RNA-chromatin interactome discovery” (The Regents of the University of California, priority 2016, dated 2021).

How the values were obtained:
[1] = test system: MM.1S cells; conditions: cited from earlier work
[2] = test system: MDA-MB-231 cells; test: GRO-seq (global nuclear run-on), transcriptional response to JQ1; assay type: cell-based, Human; conditions: 500 nM JQ1, 6 h vs 0.05% DMSO, FIG. 12K
Protocol: Cell culture. MDA-MB-231 breast cancer cells (HTB-26 ATCC) and MM.1S multiple myeloma cells were grown at 37° C. and 5% CO2. MDA-MB-231 cells were cultured in Dulbecco's Modified Eagle Medium (Thermo Fisher Sci.) supplemented with 10% fetal bovine serum. MM.1S cells were cultured in RPMI-1640 supplemented with 1% GlutaMAX (Thermo Fisher Sci.) and 10% fetal bovine serum. […] Drosophila S2 cells were cultured in Schneider's Drosophila Medium (Thermo Fisher Sci.) supplemented with 10% fetal bovine serum and 2 mM L-glutamine (Thermo Fisher Sci.), at ambient temperature in ambient CO2.
Functional perturbation of general enhancer activities. […] To quantify transcription activities in an unbiased manner, GRO-seq read densities were initially normalized using total uniquely-mapped read numbers to remove variations between libraries. To minimize the bias introduced by promoter pausing or gene length, only reads that were aligned within the 2 Kb region 1 Kb downstream from the TSS were selected to calculate the transcription activity. For multi-isoform genes, the transcript with highest read counts within the 2 Kb window was selected to represent the gene's transcription activity. Public datasets analyzed. The data of RNA Pol II ChIP-seq for MDA-MB-231 cells were obtained from European Genome-phenome Archive (www.ebi.ac.uk/ega). […]

## Cc1sc2c(c1C)C(c1ccc(Cl)cc1)=N[C@@H](CC(=O)OC(C)(C)C)c1nnc(C)n1-2 [JQ1]
[1]; GRID-seq inferred connectivity within 50 Kb range, same without range, FIG. 14E, F
  response of gene expression to JQ1: genes associated with at least one super-enhancer vs only typical enhancers: more responsive
[1]; genes within ±50 Kb of enhancers, FIG. 13E
  response of gene expression to JQ1: genes associated with top 10% vs bottom 10% RNA-decorated enhancers: more responsive
[2]
  transcriptional response to JQ1 (GRO-seq): genes associated with top 10% vs bottom 10% RNA-decorated enhancers: The same conclusions were reached
